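Protocol summary: plate cells (96-well), add compound at 5 concentrations, incubate 48 h, interpolate endpoints linearly. GI50: concentration for 50% inhibition of growth. TGI: total growth inhibition.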
What was measured:
Experiment in all cases: inhibition of tumour cell growth, NCI panel, 48 h
SW-620 colon = tested on: SW-620 colon
KM12 colon = tested on: KM12 colon
PC-3 prostate = tested on: PC-3 prostate
786-0 renal = tested on: 786-0 renal
NCI-H226 lung = tested on: NCI-H226 lung
UACC-257 melanoma = tested on: UACC-257 melanoma
MOLT-4 leukemia = tested on: MOLT-4 leukemia
UACC-62 melanoma = tested on: UACC-62 melanoma
HCT-116 colon = tested on: HCT-116 colon
ACHN renal = tested on: ACHN renal
SR leukemia = tested on: SR leukemia
NCI-H23 lung = tested on: NCI-H23 lung
HS 578T breast = tested on: HS 578T breast
HOP-92 NSCLC = tested on: HOP-92 NSCLC
HCT-15 colon = tested on: HCT-15 colon
MALME-3M melanoma = tested on: MALME-3M melanoma
HT29 colon = tested on: HT29 colon
DU-145 prostate = tested on: DU-145 prostate
SK-OV-3 ovarian = tested on: SK-OV-3 ovarian
OVCAR-5 ovarian = tested on: OVCAR-5 ovarian
M14 melanoma = tested on: M14 melanoma
U251 CNS = tested on: U251 CNS
MDA-MB-435 = tested on: MDA-MB-435
CAKI-1 renal = tested on: CAKI-1 renal
LOX IMVI melanoma = tested on: LOX IMVI melanoma
UO-31 renal = tested on: UO-31 renal
RPMI-8226 leukemia = tested on: RPMI-8226 leukemia
IGROV1 ovarian = tested on: IGROV1 ovarian
COLO 205 colon = tested on: COLO 205 colon
SK-MEL-5 melanoma = tested on: SK-MEL-5 melanoma
HCC-2998 colon = tested on: HCC-2998 colon
SF-295 CNS = tested on: SF-295 CNS
NCI-H522 lung = tested on: NCI-H522 lung
BT-549 breast = tested on: BT-549 breast
A498 renal = tested on: A498 renal
SNB-75 CNS = tested on: SNB-75 CNS
OVCAR-8 ovarian = tested on: OVCAR-8 ovarian
HL-60(TB) leukemia = tested on: HL-60(TB) leukemia
SN12C renal = tested on: SN12C renal
TK-10 renal = tested on: TK-10 renal
OVCAR-3 ovarian = tested on: OVCAR-3 ovarian
SF-539 CNS = tested on: SF-539 CNS
MCF7 breast = tested on: MCF7 breast
A549 NSCLC = tested on: A549 NSCLC
OVCAR-4 ovarian = tested on: OVCAR-4 ovarian
HOP-62 NSCLC = tested on: HOP-62 NSCLC
K-562 leukemia = tested on: K-562 leukemia
SK-MEL-28 melanoma = tested on: SK-MEL-28 melanoma
MDA-MB-231 breast = tested on: MDA-MB-231 breast
SNB-19 CNS = tested on: SNB-19 CNS
T-47D breast = tested on: T-47D breast
RXF 393 renal = tested on: RXF 393 renal
CCRF-CEM leukemia = tested on: CCRF-CEM leukemia
SF-268 CNS = tested on: SF-268 CNS
NCI/ADR-RES ovarian = tested on: NCI/ADR-RES ovarian
NCI-H460 lung = tested on: NCI-H460 lung
SK-MEL-2 melanoma = tested on: SK-MEL-2 melanoma

## CCN(CC)CCC(=O)Nc1cccc2c1C(=O)c1c(c(O)c3ccccc3c1O)C2=O
SW-620 colon
  GI50: 6.93 µM
  TGI: 23 µM
KM12 colon
  GI50: 21.5 µM
  TGI: > 100 µM
PC-3 prostate
  GI50: 4.6 µM
  TGI: 21.7 µM
786-0 renal
  GI50: 2.08 µM
  TGI: 4.39 µM
NCI-H226 lung
  GI50: 17.1 µM
  TGI: > 100 µM
UACC-257 melanoma
  GI50: 41.6 µM
  TGI: > 100 µM
MOLT-4 leukemia
  GI50: 8.27 µM
  TGI: 72.5 µM
UACC-62 melanoma
  GI50: > 100 µM
  TGI: > 100 µM
HCT-116 colon
  GI50: 8.8 µM
  TGI: > 100 µM
ACHN renal
  GI50: 4.63 µM
  TGI: 38.5 µM
SR leukemia
  GI50: 0.878 µM
  TGI: 52.4 µM
NCI-H23 lung
  GI50: 21.9 µM
  TGI: > 100 µM
HS 578T breast
  GI50: 16.2 µM
  TGI: > 100 µM
HOP-92 NSCLC
  GI50: 0.237 µM
  TGI: 8.56 µM
HCT-15 colon
  GI50: 0.934 µM
  TGI: > 100 µM
MALME-3M melanoma
  GI50: 26.9 µM
  TGI: 88.7 µM
HT29 colon
  GI50: 19.3 µM
  TGI: > 100 µM
DU-145 prostate
  GI50: 15.5 µM
  TGI: 61.2 µM
SK-OV-3 ovarian
  GI50: 85.3 µM
  TGI: > 100 µM
OVCAR-5 ovarian
  GI50: 14.6 µM
  TGI: 30 µM
M14 melanoma
  GI50: 35.4 µM
  TGI: > 100 µM
U251 CNS
  GI50: 10.2 µM
  TGI: 22.7 µM
MDA-MB-435
  GI50: 31 µM
  TGI: > 100 µM
CAKI-1 renal
  GI50: > 100 µM
  TGI: > 100 µM
LOX IMVI melanoma
  GI50: 5.77 µM
  TGI: 23.7 µM
UO-31 renal
  GI50: 1.12 µM
  TGI: 3.31 µM
RPMI-8226 leukemia
  GI50: 14.2 µM
  TGI: 43.1 µM
IGROV1 ovarian
  GI50: 18.9 µM
  TGI: 96.8 µM
COLO 205 colon
  GI50: 20.7 µM
  TGI: > 100 µM
SK-MEL-5 melanoma
  GI50: 49.7 µM
  TGI: > 100 µM
HCC-2998 colon
  GI50: > 100 µM
  TGI: > 100 µM
SF-295 CNS
  GI50: 12.8 µM
  TGI: > 100 µM
NCI-H522 lung
  GI50: 80.3 µM
  TGI: > 100 µM
BT-549 breast
  GI50: 19.5 µM
  TGI: 52.3 µM
A498 renal
  GI50: 17.7 µM
  TGI: 47.6 µM
SNB-75 CNS
  GI50: 2.11 µM
  TGI: 10.8 µM
OVCAR-8 ovarian
  GI50: 10.5 µM
  TGI: 26.9 µM
HL-60(TB) leukemia
  GI50: > 100 µM
  TGI: > 100 µM
SN12C renal
  GI50: 21.5 µM
  TGI: > 100 µM
TK-10 renal
  GI50: 20.9 µM
  TGI: 40.9 µM
OVCAR-3 ovarian
  GI50: 15 µM
  TGI: 52.2 µM
SF-539 CNS
  GI50: 3.38 µM
  TGI: 13.8 µM
MCF7 breast
  GI50: 6.77 µM
  TGI: 22.9 µM
A549 NSCLC
  GI50: 17.7 µM
  TGI: 57 µM
OVCAR-4 ovarian
  GI50: 4.05 µM
  TGI: 23.1 µM
HOP-62 NSCLC
  GI50: 10.4 µM
  TGI: 39.1 µM
K-562 leukemia
  GI50: 2.67 µM
  TGI: 13.8 µM
SK-MEL-28 melanoma
  GI50: 3.65 µM
  TGI: 14.4 µM
MDA-MB-231 breast
  GI50: 9.64 µM
  TGI: 26.1 µM
SNB-19 CNS
  GI50: 16.8 µM
  TGI: 44.8 µM
T-47D breast
  GI50: > 100 µM
  TGI: > 100 µM
RXF 393 renal
  GI50: 4.16 µM
  TGI: 23.8 µM
CCRF-CEM leukemia
  GI50: 1.34 µM
  TGI: 4.71 µM
SF-268 CNS
  GI50: 12.7 µM
  TGI: 36.5 µM
NCI/ADR-RES ovarian
  GI50: 3.94 µM
  TGI: 40.4 µM
NCI-H460 lung
  GI50: 13.3 µM
  TGI: 81.3 µM
SK-MEL-2 melanoma
  GI50: > 100 µM
  TGI: > 100 µM
